Test results reported in the supplement of paper PMC8960247.
Where a name gives a salt, the structure may show the parent alone. ± gives the standard error.

test system: 621-103 (TSC2-rescued); assay: relative viability vs DMSO; higher = less cytotoxic; conditions: 0.1 µM; serum: 10% FBS; 72 h
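Also: immortalized renal angiomyolipoma cells stably carrying empty vector or TSC2, dosed in 384-well plates in DMEM, viability normalized to vehicle-treated wells within each plate.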

Going from `COc1cc2c(N3CCN(C(=O)Nc4ccc(OC(C)C)cc4)CC3)ncnc2cc1OCCCN1CCCCC1` [Tandutinib (MLN518)] to `COc1cc2/c(=N/c3ccc(Br)cc3F)nc[nH]c2cc1OCC1CCN(C)CC1` [Vandetanib], the relative viability falls from 101 ± 1.9% to 97.74 ± 0.94%.

`CNC(=O)c1cc(COc2nnc(Nc3ccc(Cl)cc3)c3ccoc23)ccn1` [Telatinib (BAY57-9352)] and `Clc1ccc(Nc2nnc(Cc3ccncc3)c3ccccc23)cc1` [Vatalanib] are within error of each other in relative viability: 108 ± 2% for the first, 105 ± 1.4% for the second.

First: CCCc1nc2c(C)cc(-c3nc4ccccc4n3C)cc2n1Cc1ccc(-c2ccccc2C(=O)O)cc1 [Telmisartan]
Second: CCCCC(=O)N(Cc1ccc(-c2ccccc2-c2nnn[nH]2)cc1)[C@H](C(=O)O)C(C)C [Valsartan]
The relative viability of the first is lower: 103.34 ± 0.025% for the first, 114 ± 6.2% for the second.

`C[C@H](Cn1cnc2c(N)ncnc21)OCP(=O)(O)O` [Tenofovir] and `CCO[C@@H]1OC(=O)C[C@@H]1NC(=O)[C@@H]1CCCN1C(=O)[C@@H](NC(=O)c1ccc(N)c(Cl)c1)C(C)(C)C` [VX-765] are within error of each other in relative viability: 109 ± 4.2% for the first, 105 ± 6.8% for the second.

Going from `CN(C/C=C/C#CC(C)(C)C)Cc1cccc2ccccc12` [Terbinafine HCl] to `CC(C)(C)c1cc(C(C)(C)C)c(NC(=O)c2c[nH]c3ccccc3c2=O)cc1O` [VX-770], the relative viability rises from 101 ± 1.3% to 110 ± 3.3%.

`CCC(=O)O[C@H]1CC[C@H]2[C@@H]3CCC4=CC(=O)CC[C@]4(C)[C@H]3CC[C@]12C` [Testosterone propionate (Agovirin)] and `C[C@]12CC[C@H]3[C@@H](CC[C@@]45O[C@@H]4C(O)=C(C#N)C[C@]35C)[C@@H]1CC[C@@H]2O` [Trilostane] are within error of each other in relative viability: 98.7 ± 2.8% for the first, 101 ± 2.7% for the second.

`CCCCNc1ccc(C(=O)OCCN(C)C)cc1` [Tetracaine HCl] and `CC(/C=C/C(=O)NO)=C\[C@@H](C)C(=O)c1ccc(N(C)C)cc1` [Trichostatin A] are within error of each other in relative viability: 103 ± 6.7% for the first, 99.71 ± 0.22% for the second.

`C[N+]1(C)[C@@H]2C[C@@H](OC(=O)C(O)(c3cccs3)c3cccs3)C[C@H]1[C@@H]1O[C@@H]12` [Tiotropium Bromide hydrate] and `O=C(O[C@H]1C[C@H]2CC[C@@H](C1)[N+]21CCCC1)C(O)(c1ccccc1)c1ccccc1` [Trospium chloride (Sanctura)] are within error of each other in relative viability: 100 ± 2.9% for the first, 102 ± 3.1% for the second.

`C[N+]1(C)[C@@H]2C[C@@H](OC(=O)C(O)(c3cccs3)c3cccs3)C[C@H]1[C@@H]1O[C@@H]12` [Tiotropium] and `CN1[C@@H]2CC[C@H]1C[C@@H](OC(=O)c1c[nH]c3ccccc13)C2` [Tropisetron HCl] are within error of each other in relative viability: 96.8 ± 4.6% for the first, 95.48 ± 0.32% for the second.

Compared with `O=c1oc2cc(O)ccc2s1` [Tioxolone], `NC(=O)c1cccc(-c2cccc(OC(=O)NC3CCCCC3)c2)c1` [URB597] is higher in relative viability: 80.9 ± 4.5% for the first, 106 ± 2.8% for the second.

Compared with `O=c1n(CCCN2CCN(c3cccc(Cl)c3)CC2)nc2ccccn12` [Trazodone HCl], `CN1CCc2c(c3ccccc3n2Cc2ccc(C(=O)NO)cc2)C1` [Tubastatin A HCl] is higher in relative viability: 86.6 ± 3.6% for the first, 100 ± 2.9% for the second.

`N#CC(=C(/N)Sc1ccccc1N)/C(C#N)=C(\N)Sc1ccccc1N` [U0126-EtOH] and `NC(=O)c1ccc(N(C(N)=O)c2c(F)cccc2F)nc1-c1ccc(F)cc1F` [VX-702] are within error of each other in relative viability: 101 ± 2% for the first, 99.4 ± 1.5% for the second.

`CC(C)(C)C#Cc1cc(N(C(=O)[C@H]2CC[C@H](C)CC2)[C@H]2CC[C@H](O)CC2)c(C(=O)O)s1` [VX-222] and `COc1ccc(C(CN(C)C)C2(O)CCCCC2)cc1` (centres undefined) [Venlafaxine HCl] are within error of each other in relative viability: 99.76 ± 0.98% for the first, 99.6 ± 1.8% for the second.

Compared with `O=c1ncn2nc(Sc3ccc(F)cc3F)ccc2c1-c1c(Cl)cccc1Cl` [VX-745], `CCCc1nc(C)c2c(=O)nc(-c3cc(S(=O)(=O)N4CCN(CC)CC4)ccc3OCC)[nH]n12` [Vardenafil (Vivanza)] is higher in relative viability: 100 ± 1.5% for the first, 104 ± 1.1% for the second.

same assay, conditions: 1 µM; serum: 10% FBS; 72 h

`COc1cc2c(N3CCN(C(=O)Nc4ccc(OC(C)C)cc4)CC3)ncnc2cc1OCCCN1CCCCC1` [Tandutinib (MLN518)] and `COc1cc2/c(=N/c3ccc(Br)cc3F)nc[nH]c2cc1OCC1CCN(C)CC1` [Vandetanib] are within error of each other in relative viability: 99.31 ± 0.29% for the first, 98.3 ± 0.93% for the second.

`CNC(=O)c1cc(COc2nnc(Nc3ccc(Cl)cc3)c3ccoc23)ccn1` [Telatinib (BAY57-9352)] and `Clc1ccc(Nc2nnc(Cc3ccncc3)c3ccccc23)cc1` [Vatalanib] are within error of each other in relative viability: 104 ± 1.8% for the first, 103 ± 2.8% for the second.

First: CCCc1nc2c(C)cc(-c3nc4ccccc4n3C)cc2n1Cc1ccc(-c2ccccc2C(=O)O)cc1 [Telmisartan]
Second: CCCCC(=O)N(Cc1ccc(-c2ccccc2-c2nnn[nH]2)cc1)[C@H](C(=O)O)C(C)C [Valsartan]
The relative viability of the first is lower: 101 ± 4.2% for the first, 110.2 ± 0.73% for the second.

`C[C@H](Cn1cnc2c(N)ncnc21)OCP(=O)(O)O` [Tenofovir] and `CCO[C@@H]1OC(=O)C[C@@H]1NC(=O)[C@@H]1CCCN1C(=O)[C@@H](NC(=O)c1ccc(N)c(Cl)c1)C(C)(C)C` [VX-765] are within error of each other in relative viability: 94 ± 7.9% for the first, 101.8 ± 0.69% for the second.

Compared with `CN(C/C=C/C#CC(C)(C)C)Cc1cccc2ccccc12` [Terbinafine HCl], `CC(C)(C)c1cc(C(C)(C)C)c(NC(=O)c2c[nH]c3ccccc3c2=O)cc1O` [VX-770] is higher in relative viability: 101 ± 1.3% for the first, 112 ± 2.9% for the second.

Going from `CCC(=O)O[C@H]1CC[C@H]2[C@@H]3CCC4=CC(=O)CC[C@]4(C)[C@H]3CC[C@]12C` [Testosterone propionate (Agovirin)] to `C[C@]12CC[C@H]3[C@@H](CC[C@@]45O[C@@H]4C(O)=C(C#N)C[C@]35C)[C@@H]1CC[C@@H]2O` [Trilostane], the relative viability rises from 102.1 ± 0.64% to 102.8 ± 0.34%.

Compared with `CCCCNc1ccc(C(=O)OCCN(C)C)cc1` [Tetracaine HCl], `CC(/C=C/C(=O)NO)=C\[C@@H](C)C(=O)c1ccc(N(C)C)cc1` [Trichostatin A] is higher in relative viability: 78.5 ± 6.8% for the first, 96.9 ± 1.4% for the second.

`C[N+]1(C)[C@@H]2C[C@@H](OC(=O)C(O)(c3cccs3)c3cccs3)C[C@H]1[C@@H]1O[C@@H]12` [Tiotropium Bromide hydrate] and `O=C(O[C@H]1C[C@H]2CC[C@@H](C1)[N+]21CCCC1)C(O)(c1ccccc1)c1ccccc1` [Trospium chloride (Sanctura)] are within error of each other in relative viability: 103 ± 3.4% for the first, 98.6 ± 5.3% for the second.

First: C[N+]1(C)[C@@H]2C[C@@H](OC(=O)C(O)(c3cccs3)c3cccs3)C[C@H]1[C@@H]1O[C@@H]12 [Tiotropium]
Second: CN1[C@@H]2CC[C@H]1C[C@@H](OC(=O)c1c[nH]c3ccccc13)C2 [Tropisetron HCl]
The relative viability of the first is lower: 102.87 ± 0.086% for the first, 106.6 ± 0.86% for the second.

Going from `O=c1oc2cc(O)ccc2s1` [Tioxolone] to `NC(=O)c1cccc(-c2cccc(OC(=O)NC3CCCCC3)c2)c1` [URB597], the relative viability rises from 71.5 ± 8.5% to 104 ± 4%.

First: O=c1n(CCCN2CCN(c3cccc(Cl)c3)CC2)nc2ccccn12 [Trazodone HCl]
Second: CN1CCc2c(c3ccccc3n2Cc2ccc(C(=O)NO)cc2)C1 [Tubastatin A HCl]
The relative viability of the first is lower: 68.2 ± 3.2% for the first, 98.48 ± 0.54% for the second.

Compared with `N#CC(=C(/N)Sc1ccccc1N)/C(C#N)=C(\N)Sc1ccccc1N` [U0126-EtOH], `NC(=O)c1ccc(N(C(N)=O)c2c(F)cccc2F)nc1-c1ccc(F)cc1F` [VX-702] is lower in relative viability: 100.6 ± 0.44% for the first, 96.56 ± 0.13% for the second.

`CC(C)(C)C#Cc1cc(N(C(=O)[C@H]2CC[C@H](C)CC2)[C@H]2CC[C@H](O)CC2)c(C(=O)O)s1` [VX-222] and `COc1ccc(C(CN(C)C)C2(O)CCCCC2)cc1` (centres undefined) [Venlafaxine HCl] are within error of each other in relative viability: 104 ± 4.7% for the first, 96.1 ± 5% for the second.

`O=c1ncn2nc(Sc3ccc(F)cc3F)ccc2c1-c1c(Cl)cccc1Cl` [VX-745] and `CCCc1nc(C)c2c(=O)nc(-c3cc(S(=O)(=O)N4CCN(CC)CC4)ccc3OCC)[nH]n12` [Vardenafil (Vivanza)] are within error of each other in relative viability: 99.42 ± 0.31% for the first, 98.5 ± 4.4% for the second.

same assay, conditions: 10 µM; serum: 10% FBS; 72 h

Going from `COc1cc2c(N3CCN(C(=O)Nc4ccc(OC(C)C)cc4)CC3)ncnc2cc1OCCCN1CCCCC1` [Tandutinib (MLN518)] to `COc1cc2/c(=N/c3ccc(Br)cc3F)nc[nH]c2cc1OCC1CCN(C)CC1` [Vandetanib], the relative viability falls from 83.4 ± 1.2% to 11.4 ± 1.8%.

Going from `CNC(=O)c1cc(COc2nnc(Nc3ccc(Cl)cc3)c3ccoc23)ccn1` [Telatinib (BAY57-9352)] to `Clc1ccc(Nc2nnc(Cc3ccncc3)c3ccccc23)cc1` [Vatalanib], the relative viability rises from 55.8 ± 4.5% to 110.66 ± 0.097%.

First: CCCc1nc2c(C)cc(-c3nc4ccccc4n3C)cc2n1Cc1ccc(-c2ccccc2C(=O)O)cc1 [Telmisartan]
Second: CCCCC(=O)N(Cc1ccc(-c2ccccc2-c2nnn[nH]2)cc1)[C@H](C(=O)O)C(C)C [Valsartan]
The relative viability of the first is lower: 107 ± 2.6% for the first, 115 ± 2.4% for the second.

Going from `C[C@H](Cn1cnc2c(N)ncnc21)OCP(=O)(O)O` [Tenofovir] to `CCO[C@@H]1OC(=O)C[C@@H]1NC(=O)[C@@H]1CCCN1C(=O)[C@@H](NC(=O)c1ccc(N)c(Cl)c1)C(C)(C)C` [VX-765], the relative viability rises from 92.6 ± 4.3% to 102 ± 4.9%.

First: CN(C/C=C/C#CC(C)(C)C)Cc1cccc2ccccc12 [Terbinafine HCl]
Second: CC(C)(C)c1cc(C(C)(C)C)c(NC(=O)c2c[nH]c3ccccc3c2=O)cc1O [VX-770]
The relative viability of the first is higher: 97.22 ± 0.58% for the first, 32.3 ± 8.3% for the second.

First: CCC(=O)O[C@H]1CC[C@H]2[C@@H]3CCC4=CC(=O)CC[C@]4(C)[C@H]3CC[C@]12C [Testosterone propionate (Agovirin)]
Second: C[C@]12CC[C@H]3[C@@H](CC[C@@]45O[C@@H]4C(O)=C(C#N)C[C@]35C)[C@@H]1CC[C@@H]2O [Trilostane]
The relative viability of the first is lower: 87.6 ± 1.6% for the first, 100 ± 1.9% for the second.

First: CCCCNc1ccc(C(=O)OCCN(C)C)cc1 [Tetracaine HCl]
Second: CC(/C=C/C(=O)NO)=C\[C@@H](C)C(=O)c1ccc(N(C)C)cc1 [Trichostatin A]
The relative viability of the first is higher: 74.1 ± 2.6% for the first, 44.8 ± 2.1% for the second.

First: C[N+]1(C)[C@@H]2C[C@@H](OC(=O)C(O)(c3cccs3)c3cccs3)C[C@H]1[C@@H]1O[C@@H]12 [Tiotropium Bromide hydrate]
Second: O=C(O[C@H]1C[C@H]2CC[C@@H](C1)[N+]21CCCC1)C(O)(c1ccccc1)c1ccccc1 [Trospium chloride (Sanctura)]
The relative viability of the first is higher: 103 ± 2.6% for the first, 92.1 ± 4.1% for the second.

First: C[N+]1(C)[C@@H]2C[C@@H](OC(=O)C(O)(c3cccs3)c3cccs3)C[C@H]1[C@@H]1O[C@@H]12 [Tiotropium]
Second: CN1[C@@H]2CC[C@H]1C[C@@H](OC(=O)c1c[nH]c3ccccc13)C2 [Tropisetron HCl]
The relative viability of the first is higher: 100.4 ± 0.9% for the first, 84.7 ± 1.7% for the second.

First: O=c1oc2cc(O)ccc2s1 [Tioxolone]
Second: NC(=O)c1cccc(-c2cccc(OC(=O)NC3CCCCC3)c2)c1 [URB597]
The relative viability of the first is lower: 60.9 ± 5% for the first, 112.8 ± 0.77% for the second.

Going from `O=c1n(CCCN2CCN(c3cccc(Cl)c3)CC2)nc2ccccn12` [Trazodone HCl] to `CN1CCc2c(c3ccccc3n2Cc2ccc(C(=O)NO)cc2)C1` [Tubastatin A HCl], the relative viability rises from 63.7 ± 7.5% to 90.6 ± 1.5%.

Compared with `N#CC(=C(/N)Sc1ccccc1N)/C(C#N)=C(\N)Sc1ccccc1N` [U0126-EtOH], `NC(=O)c1ccc(N(C(N)=O)c2c(F)cccc2F)nc1-c1ccc(F)cc1F` [VX-702] is higher in relative viability: 90.4 ± 1.6% for the first, 99.1 ± 1.8% for the second.

Going from `CC(C)(C)C#Cc1cc(N(C(=O)[C@H]2CC[C@H](C)CC2)[C@H]2CC[C@H](O)CC2)c(C(=O)O)s1` [VX-222] to `COc1ccc(C(CN(C)C)C2(O)CCCCC2)cc1` (centres undefined) [Venlafaxine HCl], the relative viability falls from 105.42 ± 0.075% to 90.61 ± 0.47%.

`O=c1ncn2nc(Sc3ccc(F)cc3F)ccc2c1-c1c(Cl)cccc1Cl` [VX-745] and `CCCc1nc(C)c2c(=O)nc(-c3cc(S(=O)(=O)N4CCN(CC)CC4)ccc3OCC)[nH]n12` [Vardenafil (Vivanza)] are within error of each other in relative viability: 98.127 ± 0.049% for the first, 98.6 ± 1.7% for the second.
